Laboratory results as given in ChEMBL document CHEMBL1201862, “PubChem BioAssay data set” (2004).
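96-well plates; 48 h exposure; 5 concentrations. Endpoints by linear interpolation between flanking doses. Not reached: highest tested concentration assigned. Here, GI50 denotes the concentration required for 50% inhibition of growth.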 Active and inactive are the calls of the source. Cut-off read from the data, not from the text of the source: active = GI50 up to about 1.1 µM and inactive = higher.

Key:
Test in all cases: DTP human tumour cell line panel, 48 h
[1] = tested on: 786-0
[2] = tested on: A498
[3] = tested on: A549
[4] = tested on: ACHN
[5] = tested on: BT-549
[6] = tested on: CAKI-1
[7] = tested on: CCRF-CEM
[8] = tested on: COLO 205
[9] = tested on: DU-145
[10] = tested on: EKVX
[11] = tested on: HCC 2998
[12] = tested on: HCT-116
[13] = tested on: HCT-15
[14] = tested on: HL-60
[15] = tested on: HOP-62
[16] = tested on: HOP-92
[17] = tested on: HT-29
[18] = tested on: Hs-578T
[19] = tested on: IGROV-1
[20] = tested on: K562
[21] = tested on: KM12
[22] = tested on: LOX IMVI
[23] = tested on: M14
[24] = tested on: MCF7
[25] = tested on: MDA-MB-231
[26] = tested on: MDA-MB-435
[27] = tested on: MDA-N
[28] = tested on: MOLT-4
[29] = tested on: NCI-H226
[30] = tested on: NCI-H23
[31] = tested on: NCI-H460
[32] = tested on: NCI-H522
[33] = tested on: NCI/ADR-RES
[34] = tested on: OVCAR-3
[35] = tested on: OVCAR-4
[36] = tested on: OVCAR-5
[37] = tested on: OVCAR-8
[38] = tested on: PC-3
[39] = tested on: RPMI-8226
[40] = tested on: RXF 393
[41] = tested on: SF-268
[42] = tested on: SF-295
[43] = tested on: SF-539
[44] = tested on: SK-MEL-28
[45] = tested on: SK-MEL-2
[46] = tested on: SK-MEL-5
[47] = tested on: SK-OV-3
[48] = tested on: SN12C
[49] = tested on: SNB-19
[50] = tested on: SNB-75
[51] = tested on: SR
[52] = tested on: SW-620
[53] = tested on: T47D
[54] = tested on: TK-10
[55] = tested on: U-251
[56] = tested on: UACC-257
[57] = tested on: UACC-62
[58] = tested on: UO-31
[59] = tested on: Malme-3M

Measured: GI50

NNC(=O)CSc1nc2ccc(I)cc2c(=O)n1Cc1ccccc1
36.6 µM: [13]
inactive: [1] 15.6 µM | [2] 14.2 µM | [3] 24.3 µM | [4] 18.7 µM | [5] 23.2 µM | [6] 15.3 µM | [7] 3.89 µM | [8] 21.5 µM | [9] 31.2 µM | [10] 13.1 µM | [11] 16.8 µM | [12] 18.4 µM | [14] 20.6 µM | [15] 19 µM | [16] 30.5 µM | [17] 21.7 µM | [18] 20.9 µM | [19] 24.4 µM | [20] 26.1 µM | [21] 23.5 µM | [22] 15.6 µM | [23] 18.2 µM | [24] 22.2 µM | [25] 14.3 µM | [26] 35.2 µM | [27] 31.8 µM | [28] 15 µM | [29] 18.8 µM | [30] 31.5 µM | [31] 18.8 µM | [32] 14.9 µM | [33] 40.6 µM | [34] 18.4 µM | [35] 19.5 µM | [36] 20.4 µM | [37] 48.4 µM | [38] 22.8 µM | [39] 21.6 µM | [40] 13.1 µM | [41] 17.5 µM | [42] 21.9 µM | [43] 19.7 µM | [44] 28.4 µM | [45] 20.4 µM | [46] 17.2 µM | [47] 15.7 µM | [48] 21.3 µM | [49] 23.3 µM | [50] 22.9 µM | [51] 26.5 µM | [52] 33 µM | [53] 22.5 µM | [54] 16.9 µM | [55] 20.3 µM | [56] 19.9 µM | [57] 18.6 µM | [58] 15.9 µM

Cc1cn2c(/C=C3/C(=O)Nc4cccc(Cl)c43)c(Cl)nc2s1
> 100 µM: [13]
inactive: [1] 18.5 µM | [2] 63.2 µM | [3] 27 µM | [4] 20.6 µM | [5] 22.3 µM | [6] > 100 µM | [7] 13.5 µM | [9] > 100 µM | [10] 55.8 µM | [11] 6.34 µM | [12] 60.1 µM | [14] 53.7 µM | [15] 13.6 µM | [16] 34.3 µM | [17] > 100 µM | [18] 4.13 µM | [19] > 100 µM | [20] > 100 µM | [21] > 100 µM | [22] > 100 µM | [23] 34.7 µM | [24] > 100 µM | [25] 15.3 µM | [26] > 100 µM | [27] > 100 µM | [28] > 100 µM | [59] > 100 µM | [30] 25.8 µM | [32] > 100 µM | [33] > 100 µM | [34] 61.9 µM | [35] > 100 µM | [36] > 100 µM | [37] > 100 µM | [38] > 100 µM | [39] > 100 µM | [40] 25.4 µM | [41] 11.3 µM | [42] 36.3 µM | [44] 1.12 µM | [47] 27.7 µM | [48] > 100 µM | [49] 40.4 µM | [50] 14.2 µM | [51] > 100 µM | [52] 3.18 µM | [53] > 100 µM | [54] 17.9 µM | [55] 5.26 µM | [56] > 100 µM | [57] 19.6 µM | [58] > 100 µM

O=C(NC(OCc1ccccc1)(C(F)(F)F)C(F)(F)F)OCc1ccccc1
13.8 µM: [13]
inactive: [1] 16.5 µM | [2] 17.7 µM | [3] 15 µM | [4] 15.7 µM | [5] 15.4 µM | [6] 14.4 µM | [7] 16.1 µM | [8] 17.8 µM | [9] 16.6 µM | [10] 15.2 µM | [11] 15.4 µM | [12] 16.4 µM | [14] 17.1 µM | [15] 15.1 µM | [16] 14.7 µM | [17] 18 µM | [18] 13.9 µM | [19] 15.1 µM | [20] 17.1 µM | [21] 16.4 µM | [22] 14.5 µM | [23] 18.9 µM | [24] 16.4 µM | [25] 17.7 µM | [26] 17.3 µM | [27] 15.2 µM | [28] 18.1 µM | [59] 18 µM | [29] 14.1 µM | [30] 12.9 µM | [31] 16.1 µM | [32] 13.6 µM | [33] 12.6 µM | [34] 15.3 µM | [36] 14.3 µM | [37] 16.3 µM | [38] 13.8 µM | [39] 16.4 µM | [40] 12.5 µM | [41] 18.2 µM | [42] 17.6 µM | [43] 17.3 µM | [44] 17.7 µM | [45] 15.3 µM | [46] 15.8 µM | [47] 17.5 µM | [48] 15.9 µM | [49] 15.8 µM | [50] 15.6 µM | [51] 12 µM | [52] 17.3 µM | [53] 15.7 µM | [54] 7.8 µM | [55] 14.1 µM | [56] 14.2 µM | [57] 13.9 µM | [58] 11.2 µM

O=S(=O)(O)c1ccc2c(/N=N/c3ccccc3)c(O)c(S(=O)(=O)O)cc2c1
active: [39] < 0.01 µM
inactive: [1] > 100 µM | [2] > 100 µM | [3] > 100 µM | [4] > 100 µM | [5] > 100 µM | [6] > 100 µM | [7] > 100 µM | [8] > 100 µM | [9] > 100 µM | [10] 67 µM | [11] > 100 µM | [12] > 100 µM | [14] > 100 µM | [15] > 100 µM | [16] > 100 µM | [18] > 100 µM | [19] > 100 µM | [20] > 100 µM | [21] > 100 µM | [23] > 100 µM | [24] > 100 µM | [25] > 100 µM | [26] > 100 µM | [27] > 100 µM | [28] > 100 µM | [59] > 100 µM | [29] > 100 µM | [30] > 100 µM | [31] > 100 µM | [32] > 100 µM | [33] > 100 µM | [34] > 100 µM | [35] > 100 µM | [36] > 100 µM | [37] > 100 µM | [38] > 100 µM | [40] > 100 µM | [41] > 100 µM | [42] > 100 µM | [43] > 100 µM | [44] > 100 µM | [45] > 100 µM | [46] > 100 µM | [47] > 100 µM | [48] > 100 µM | [49] > 100 µM | [50] > 100 µM | [51] > 100 µM | [52] > 100 µM | [53] > 100 µM | [54] > 100 µM | [55] > 100 µM | [56] > 100 µM | [57] > 100 µM | [58] > 100 µM
> 100 µM: [13]

Cc1cc(S(=O)(=O)Nc2nc3ccccc3nc2-c2ccc(Cl)cc2)c(S)cc1Cl
20.1 µM: [13]
inactive: [1] 21 µM | [2] 16.3 µM | [3] 16.4 µM | [4] 16.7 µM | [5] 23.8 µM | [6] 18.7 µM | [7] 21.7 µM | [8] 16.4 µM | [9] 16.3 µM | [10] 15.7 µM | [11] 15.7 µM | [12] 19.4 µM | [14] 21.6 µM | [15] 22.4 µM | [16] 20.4 µM | [17] 17.5 µM | [18] 27 µM | [19] 12.4 µM | [20] 19.9 µM | [21] 17.2 µM | [23] 19.3 µM | [24] 17 µM | [25] 24.5 µM | [26] 17.3 µM | [27] 18 µM | [28] 13.8 µM | [59] 22.7 µM | [29] 23.1 µM | [30] 18.5 µM | [31] 13.6 µM | [32] 13.6 µM | [33] 19.4 µM | [34] 16.3 µM | [35] 14.6 µM | [36] 19.6 µM | [37] 23.2 µM | [38] 17.1 µM | [39] 23.1 µM | [40] 23 µM | [41] 17.7 µM | [42] 18.9 µM | [43] 19.9 µM | [44] 16.8 µM | [45] 13.7 µM | [46] 14 µM | [47] 17.3 µM | [48] 25.6 µM | [49] 19 µM | [51] 17.3 µM | [53] 14.5 µM | [54] 28.6 µM | [55] 16.4 µM | [56] 21.7 µM | [57] 12.2 µM | [58] 15.9 µM
